Experimental data reported in patent US12257287B2, “Glucagon-derived peptide and use thereof” (Tianjin Institute of Pharmaceutical Research Co., Ltd., priority 2018, dated 2025).
In brackets after ≈: the same amount, converted by molar mass. Marks after values point to notes of the source that are not given here. Numbered stars: 1 amine (or outer) side, 2 acyl side, 3 side chain; on linkers, the order of the positions; unused ones are H or OH. Square brackets hold non-standard residues; d marks the D form. Side chains are listed from the residue outwards. Peptide text beside a SMILES is read from it. * marks the point of attachment. C20 diacid = O=C(O)CCCCCCCCCCCCCCCCCCC(=O)*; C18 diacid = O=C(O)CCCCCCCCCCCCCCCCC(=O)*; γGlu = O=C(O)[C@H](CCC(=O)[*:2])N[*:1]; AEEA = NCCOCCOCC(=O)O; Aib = CC(C)(N)C(=O)O

Tests used:
[1] = Effect on body weight of DIO mice after 14 days' administration; assay type: in vivo, C57BL/6J mice; conditions: positive values indicate a decrease; for body weight change, Table 5: Example 4, DIO mice, 14 days' administration, methods as in Example 3
From the text: C57BL/6J mice (n=35), model group (n=30) were fed with H10060 high-fat diet to induce obesity (DIO), blank control group (n=5) were fed with standard diet, both for 34 weeks. One day before the first administration, the model group was randomly divided into groups according to their body weight (average body weight range 45.0-52.0 g), with 5 mice in each group, which respectively were model control group, positive control group (semaglutide), and test sample group (1 #-4 # are compound 1, compound 4, compound 6 and compound 22, respectively). The blank control group and model control group were given saline subcutaneously every day, while the positive control group and test sample group were administrated by subcutaneous injection every day for 14 days. The body weight of the animals was weighed and recorded every day, and the change rate of body weight (%) was calculated by comparing the body weight at the last administration day with the initial body weight. (initial body weight−last body weight)/initial body weight=body weight change rate (%). Calculation formula: […]
Calculated positive values indicate a decrease and negative values indicate an increase.
(§1) Methods are the same as that in Example 3, the test results of effects on body weight are shown in Table 5, and the effects on blood glucose are shown in Table 6. In the table, 5 #-9 # are compound 27, compound 35, compound 54, compound 57, and compound 66, respectively.

[2] = Glucose tolerance test in glucose-loaded DIO mice; assay type: in vivo; design: AUC reduction rate (%), Table 6: concentration or dose not given beside the values; conditions: for AUC of blood glucose, Table 6: Example 4, DIO mice under glucose load, methods as in Example 3; for AUC reduction rate (%), Table 6: Example 4, compared with model control group, DIO mice under glucose load
Method: DIO mice fasted for 16 h, and 1 h after administration by subcutaneous injection, glucose solution (1 g/kg) was given intraperitoneally for glucose tolerance test. Blood glucose values were measured at 0.5, 1 and 1.5 h after glucose administration. The area under the blood glucose concentration curve (AUC) was calculated and compared with that of the model control group, and the blood glucose inhibition rate (%) was calculated.
as §1

physchem = assay type: physicochemical
GC receptor = target: T1, GC receptor (Homo sapiens, UniProt P47871); experiment: GC receptor mediated cAMP production in vitro (HEK293 cells transfected with GC receptor); assay type: cell-based; conditions: 20 min at 37° C., read-out: GCGR (nM EC50)
T1 construct: expressed in transfected cells; host or cells: HEK293 cells
T1 sequence (P47871 26-477): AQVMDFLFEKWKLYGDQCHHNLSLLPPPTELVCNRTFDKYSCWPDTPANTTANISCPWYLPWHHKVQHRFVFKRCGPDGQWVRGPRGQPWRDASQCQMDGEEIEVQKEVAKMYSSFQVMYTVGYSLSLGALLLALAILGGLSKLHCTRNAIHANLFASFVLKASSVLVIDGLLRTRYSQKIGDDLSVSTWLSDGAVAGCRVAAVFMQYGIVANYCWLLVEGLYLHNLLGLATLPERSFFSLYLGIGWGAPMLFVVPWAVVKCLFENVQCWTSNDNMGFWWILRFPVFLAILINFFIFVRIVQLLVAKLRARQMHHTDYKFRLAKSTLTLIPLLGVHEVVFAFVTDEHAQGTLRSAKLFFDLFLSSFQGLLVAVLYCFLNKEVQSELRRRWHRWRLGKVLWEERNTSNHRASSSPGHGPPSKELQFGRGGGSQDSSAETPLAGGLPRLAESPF
From the text: The medium was removed, the cells were lysed, and cAMP values were detected referring to the detection method described for the assay kit.

[3] = Short-term administration: food intake and body weight in DIO mice; assay type: in vivo; conditions: 30 nmol/kg once every 24 h, twice, − decrease; for Rate of change in food intake (%): at 48 hours vs day before administration; for Body weight change: at 48 hours
Method: Method: diet-induced obese mice (DIO) with an average body weight of 52.5 g were divided into model control and test groups, 5 mice in each group. The test samples were dissolved in 10 mM PBS of pH7.4, injected once every 24 h at a dose of 30 nmol/kg, and administered twice. The model group was injected with solvent. Changes in food intake and body weight at 48 hours were measured, and the change rates were calculated compared to the day before administration.

[4] = Accelerated chemical stability in injection solvent system (HPLC-UV); assay type: physicochemical; conditions: 14 days, phosphate buffer pH 7.3 with Tween 80 and phenol, main peak area vs day 0
Method: The chemical stability of the compounds of the present invention in injection solution systems was evaluated by an accelerated stability test. Methods: an appropriate amount of compound of Example 1 was weighed, and dissolved in 10 mM pH8.5 sodium hydrogen phosphate buffer. The final pH value of the solution was adjusted to 7.3 with 0.1 N hydrochloric acid, and proper amounts of Tween 80 and phenol were added. The mixture was placed at 10° C. and 37° C. for 14 days, and detected by HPLC-UV. The main peak area was obtained by peak area normalization method, and the changes compared with day 0 were investigated. The HPLC detection method was the same as that in Example 6, and the mobile phase gradient was appropriately adjusted according to the situation of chromatographic peak separation.

[5] = pH 7.5, Solubility, pH 7.5, 10 mM phosphate buffer
[6] = pH 7.5, Solubility, pH 7.5, 20 mM phosphate buffer
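For Solubility in this document: compound added at 2 mg per mL of phosphate buffer, with the dissolved amount determined in the supernatant.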

Molecule	body weight change, Table 5 [1]	AUC of blood glucose, Table 6 [2] [mmol·h/L]	AUC reduction rate (%), Table 6 [2]	solubility (physchem; [5]) [µg/mL]	solubility (physchem; [6]) [µg/mL]	solubility (physchem; pH 8, Solubility, pH 8.0, 10 mM phosphate buffer) [µg/mL]	solubility (physchem; pH 8, Solubility, pH 8.0, 20 mM phosphate buffer) [µg/mL]	EC50 (GC receptor) [nM]	Rate of change in food intake (%) [3] [%]	Body weight change [3] [g]	Change in purity % (10° C.) [4] [%]	Change in purity % (37° C.) [4] [%]	body weight change rate, Table 3 ([1]; DIO mice, subcutaneous injection every day for 14 days, (initial−last)/initial) [%]	AUC of blood glucose, Table 4 ([2]; DIO mice fasted 16 h, glucose 1 g/kg i.p. 1 h after s.c. administration, 0.5, 1, 1.5 h) [mmol·h/L]	AUC reduction rate (%), Table 4 ([2]; blood glucose inhibition rate compared with model control group, DIO mice, glucose 1 g/kg i.p.)
CCCCCCCCCCCCCCCC(=O)N[C@@H](CCC(=O)N[C@@H](CCC(=O)NCCCC[C@H](NC(=O)[C@H](CCC(=O)O)NC(=O)[C@H](CCC(=O)O)NC(=O)[C@H](CC(C)C)NC(=O)[C@H](Cc1ccc(O)cc1)NC(=O)[C@H](CCCCN)NC(=O)[C@H](CO)NC(=O)[C@H](Cc1ccc(O)cc1)NC(=O)[C@H](CC(=O)O)NC(=O)[C@H](CO)NC(=O)[C@@H](NC(=O)[C@H](Cc1ccccc1)NC(=O)[C@@H](NC(=O)CNC(=O)[C@H](CCC(N)=O)NC(=O)C(C)(C)NC(=O)[C@@H](N)Cc1c[nH]cn1)[C@@H](C)O)[C@@H](C)O)C(=O)N[C@@H](CCCNC(=N)N)C(=O)N[C@@H](C)C(=O)N[C@@H](CCCNC(=N)N)C(=O)N[C@@H](CCC(=O)O)C(=O)N[C@@H](Cc1ccccc1)C(=O)N[C@H](C(=O)N[C@@H](C)C(=O)N[C@@H](Cc1c[nH]c2ccccc12)C(=O)N[C@@H](CC(C)C)C(=O)N[C@@H](CC(C)C)C(=O)N[C@@H](CCC(=O)O)C(=O)NCC(=O)NCC(=O)N1CCC[C@H]1C(=O)N[C@@H](CO)C(=O)N[C@@H](CO)C(=O)NCC(N)=O)C(C)C)C(=O)O)C(=O)O [Compound 9] (HELM PEPTIDE1{H.[Aib].Q.G.T.F.T.S.D.Y.S.K.Y.L.E.E.K.R.A.R.E.F.V.A.W.L.L.E.G.G.P.S.S.G.[am]}|PEPTIDE2{[CCCCCCCCCCCCCCCC(=O)[*:2]].[gGlu].[gGlu]}$PEPTIDE1,PEPTIDE2,17:R3-3:R2$$$V2.0)	19.9	8.71 ± 2.10	56.2** %	1500 (≈ 347 µM)	1070 (≈ 247 µM)	> 2000	1760 (≈ 407 µM)								
HAibQGTFTSDYSKYLEEK*RAREFVEWLLEAGGPSSG-Amid (HXQGTFTSDYSKYLEEKRAREFVEWLLEAGGPSSG; HELM PEPTIDE1{H.[Aib].Q.G.T.F.T.S.D.Y.S.K.Y.L.E.E.K.R.A.R.E.F.V.E.W.L.L.E.A.G.G.P.S.S.G.[am]}|PEPTIDE2{[CCCCCCCCCCCCCCCC(=O)[*:2]].[gGlu].[gGlu]}$PEPTIDE1,PEPTIDE2,17:R3-3:R2$$$V2.0; N-terminus assumed; SMILES CCCCCCCCCCCCCCCC(=O)N[C@@H](CCC(=O)N[C@@H](CCC(=O)NCCCC[C@H](NC(=O)[C@H](CCC(=O)O)NC(=O)[C@H](CCC(=O)O)NC(=O)[C@H](CC(C)C)NC(=O)[C@H](Cc1ccc(O)cc1)NC(=O)[C@H](CCCCN)NC(=O)[C@H](CO)NC(=O)[C@H](Cc1ccc(O)cc1)NC(=O)[C@H](CC(=O)O)NC(=O)[C@H](CO)NC(=O)[C@@H](NC(=O)[C@H](Cc1ccccc1)NC(=O)[C@@H](NC(=O)CNC(=O)[C@H](CCC(N)=O)NC(=O)C(C)(C)NC(=O)[C@@H](N)Cc1c[nH]cn1)[C@@H](C)O)[C@@H](C)O)C(=O)N[C@@H](CCCNC(=N)N)C(=O)N[C@@H](C)C(=O)N[C@@H](CCCNC(=N)N)C(=O)N[C@@H](CCC(=O)O)C(=O)N[C@@H](Cc1ccccc1)C(=O)N[C@H](C(=O)N[C@@H](CCC(=O)O)C(=O)N[C@@H](Cc1c[nH]c2ccccc12)C(=O)N[C@@H](CC(C)C)C(=O)N[C@@H](CC(C)C)C(=O)N[C@@H](CCC(=O)O)C(=O)N[C@@H](C)C(=O)NCC(=O)NCC(=O)N1CCC[C@H]1C(=O)N[C@@H](CO)C(=O)N[C@@H](CO)C(=O)NCC(N)=O)C(C)C)C(=O)O)C(=O)O) [Compound 8, 32; * = -γE-γE-OC16H31]	24.1	8.11 ± 1.92	59.2** %												
CC(C)C[C@H](NC(=O)[C@H](Cc1c[nH]c2ccccc12)NC(=O)[C@H](C)NC(=O)[C@@H](NC(=O)[C@H](Cc1ccccc1)NC(=O)[C@H](CCC(=O)O)NC(=O)[C@H](CCCCN)NC(=O)[C@H](C)NC(=O)[C@H](C)NC(=O)[C@H](CCCNC(=N)N)NC(=O)[C@H](CCC(=O)O)NC(=O)[C@H](CC(=O)O)NC(=O)[C@H](CC(C)C)NC(=O)[C@H](Cc1ccc(O)cc1)NC(=O)[C@H](CCCCN)NC(=O)[C@H](CO)NC(=O)[C@H](CCCCNC(=O)COCCOCCNC(=O)COCCOCCNC(=O)CC[C@H](NC(=O)CCCCCCCCCCCCCCCCCCC(=O)O)C(=O)O)NC(=O)[C@H](CC(=O)O)NC(=O)[C@H](CO)NC(=O)[C@@H](NC(=O)[C@H](Cc1ccccc1)NC(=O)[C@@H](NC(=O)CNC(=O)[C@H](CCC(N)=O)NC(=O)C(C)(C)NC(=O)[C@@H](N)Cc1c[nH]cn1)[C@@H](C)O)[C@@H](C)O)C(C)C)C(=O)N[C@@H](CCC(=O)O)C(=O)N[C@@H](C)C(=O)NCC(=O)NCC(=O)N1CCC[C@H]1C(=O)N[C@@H](CO)C(=O)N[C@@H](CO)C(=O)NCC(N)=O [Compound 13] (H-H[Aib]QGTFTSDK([AEEA-AEEA-γGlu-C20 diacid])SKYLDERAAKEFVAWLEAGGPSSG-NH2; N-terminus assumed)				> 2000	> 2000			0.033	−67	-2.3	−2.8	−6.9			
CC(C)C[C@H](NC(=O)[C@H](Cc1c[nH]c2ccccc12)NC(=O)[C@H](C)NC(=O)[C@@H](NC(=O)[C@H](Cc1ccccc1)NC(=O)[C@H](CCC(=O)O)NC(=O)[C@H](CCCCN)NC(=O)[C@H](C)NC(=O)[C@H](C)NC(=O)[C@H](CCCNC(=N)N)NC(=O)[C@H](CCC(=O)O)NC(=O)[C@H](CCC(=O)O)NC(=O)[C@H](CC(C)C)NC(=O)[C@H](Cc1ccc(O)cc1)NC(=O)[C@H](CCCCN)NC(=O)[C@H](CO)NC(=O)[C@H](CCCCNC(=O)COCCOCCNC(=O)COCCOCCNC(=O)CC[C@H](NC(=O)CCCCCCCCCCCCCCCCC(=O)O)C(=O)O)NC(=O)[C@H](CC(=O)O)NC(=O)[C@H](CO)NC(=O)[C@@H](NC(=O)[C@H](Cc1ccccc1)NC(=O)[C@@H](NC(=O)CNC(=O)[C@H](CCC(N)=O)NC(=O)C(C)(C)NC(=O)[C@@H](N)Cc1c[nH]cn1)[C@@H](C)O)[C@@H](C)O)C(C)C)C(=O)N[C@@H](CCC(=O)O)C(=O)N[C@@H](C)C(=O)NCC(=O)NCC(=O)N1CCC[C@H]1C(=O)N[C@@H](CO)C(=O)N[C@@H](CO)C(=O)NCC(N)=O [Compound 22] (H-H[Aib]QGTFTSDK([AEEA-AEEA-γGlu-C18 diacid])SKYLEERAAKEFVAWLEAGGPSSG-NH2; N-terminus assumed)				> 2000	> 2000			0.018	−62	-2.6	−2.0	−5.7			
semaglutide [reference compound]	16.29	8.33 ± 1.09	58.1** %										13.20	8.97 ± 1.27	57.7** %
